In patent US20240115557A1, “INHIBITORS OF RNA-GUIDED NUCLEASES AND USES THEREOF” (The Brigham and Women's Hospital, Inc., priority 2022, published 2024):

Molecular target: T1, SaCas9 (Staphylococcus aureus, UniProt J7RUA5)
T1 sequence (J7RUA5 1-1053): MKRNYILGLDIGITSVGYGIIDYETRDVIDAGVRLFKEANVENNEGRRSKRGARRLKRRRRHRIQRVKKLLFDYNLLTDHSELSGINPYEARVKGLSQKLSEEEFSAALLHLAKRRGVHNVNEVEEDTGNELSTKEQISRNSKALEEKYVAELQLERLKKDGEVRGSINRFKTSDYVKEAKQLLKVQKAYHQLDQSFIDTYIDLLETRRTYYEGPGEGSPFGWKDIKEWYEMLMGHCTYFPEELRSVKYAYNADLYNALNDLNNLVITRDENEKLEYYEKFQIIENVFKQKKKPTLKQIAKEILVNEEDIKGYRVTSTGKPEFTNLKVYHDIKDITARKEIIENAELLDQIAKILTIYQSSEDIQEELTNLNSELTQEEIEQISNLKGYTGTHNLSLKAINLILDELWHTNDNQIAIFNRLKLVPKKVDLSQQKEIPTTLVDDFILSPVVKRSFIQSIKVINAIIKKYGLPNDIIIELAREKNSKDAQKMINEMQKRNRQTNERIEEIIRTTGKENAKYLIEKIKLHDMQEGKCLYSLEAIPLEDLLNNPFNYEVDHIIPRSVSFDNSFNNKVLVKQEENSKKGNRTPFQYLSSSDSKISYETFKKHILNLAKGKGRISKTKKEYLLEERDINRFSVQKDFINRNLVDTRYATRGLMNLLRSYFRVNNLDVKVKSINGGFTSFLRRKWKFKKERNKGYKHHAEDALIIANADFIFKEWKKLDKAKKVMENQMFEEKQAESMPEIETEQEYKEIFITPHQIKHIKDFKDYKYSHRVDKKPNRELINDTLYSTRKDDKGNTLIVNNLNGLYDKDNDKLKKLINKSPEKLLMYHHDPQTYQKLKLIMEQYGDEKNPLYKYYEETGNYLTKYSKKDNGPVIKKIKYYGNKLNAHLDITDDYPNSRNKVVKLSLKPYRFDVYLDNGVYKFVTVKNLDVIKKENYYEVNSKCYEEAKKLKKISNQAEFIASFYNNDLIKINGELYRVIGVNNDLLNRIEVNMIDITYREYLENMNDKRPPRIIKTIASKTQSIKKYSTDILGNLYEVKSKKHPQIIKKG
Assay: Strand displacement assay, SaCas9 primary screen
Assay type: biochemical
Conditions: for Auto Zscore Rep 1 / Auto Zscore Rep 2 / Normalized Zscore Rep 1 / Normalized Zscore Rep 2: SaCas9 primary screen; for Auto Zscore Rep 1 / Normalized Zscore Rep 1: replicate 1; for Auto Zscore Rep 2 / Normalized Zscore Rep 2: replicate 2; for Normalized Zscore Rep 1 / Normalized Zscore Rep 2: weaker potential hits; for 3 sigma Hit: flag 1 = hit at 3 sigma; for 5 sigma Hit: flag 1 = hit at 5 sigma
Method: An overview of the screening for SaCas9 inhibitors is depicted in FIG. 14. A total of 43,168 Compounds were screened from the ICCB Libraries. Libraries screened for the initial compounds include ChemDiv 7 (34,848 cpds), Enamine 1 (5,280 cpds), ChemDiv1 (1,760 cpds), NIH Clinical Collection (450 cpds), Biomol 4—FDA Approved Library (640 cpds). A hit is determined from the Zscore, with 3-5σ being a weak hit, >5σ being a strong hit. The results of the hits include 193 Weak Hits and 249 Strong Hits. The NIH Clinical Collection 1-2014 was screened for 450 of 450 compounds, with 7 hits—1.5%. The Biomol 4—FDA Approved Library was screened for 640 of 640 compounds, with 8 hits—1.2%. […] Enamine 1 was screened for 5,280 of 6,004 compounds, with 44 hits—0.83%. Libraries are commercially available, with reference numbers utilized for compounds identifying the compound structures used. […]
Generalization of CAA to other Cas nucleases. Applicants sought to generalize CAA to other CRISPR-associated nucleases, including from Staphylococcus aureus (SaCas9). Given the similarities between SaCas9 and SpCas9 modes of DNA-substrate binding and protein folding,^26, 27 Applicants hypothesized that SaCas9-induced strand displacement could be similarly measured. Indeed, fluorescence quenching correlated with substrate cleavage in the CAA assay with active SaCas9:gRNA and an ACGGGT PAM sequence, which was validated with gel electrophoresis (FIG. 62F,G and FIG. 69F).
First, Applicants optimized various components and conditions of the strand displacement assay for Cas enzyme activity and generality with different Cas such as SpCas9 (FIG. 62B) or SaCas9 (FIG. 69F) or FnCas12a (FIG. 70A,B). Typically, SpCas9: gRNA (1:1.2 ratio) RNP was pre-formed at 1 μM in Cas9 assay buffer (20 mM Tris-HCl, pH=7.5, 100 mM KCl, 5 mM MgCl2) for 5 min at 4° C. before diluting to 10 nM in Cas9 assay buffer (2× final concentration). 25 μL of the Cas9 2× stock was manually dispensed to a black 384-well plate (Corning 3575) using electronic pipette. Apo SpCas9 (without guide RNA) was used at the same concentration as a control for no activity (mock inhibition). Following this, pre-annealed Alexa-Fluor 647 labeled substrate and quencher were also diluted to 1 nM and 5 nM in Cas9 assay buffer, respectively (2× stock solution). Next, 25 μL of the substrate/quencher solution was added manually to each well of the Cas9-containing 384-well plates using an electronic pipette and was incubated at 37° C. for 2.5 h. Fluorescent signals were read with the microplate reader set to read Alexa-Fluor 647 fluorescence. Assay was performed similarly with SaCas9 and FnCas12a using the respective enzyme, gRNA, substrate, and quencher oligos. Applicants similarly divulged the effect of PAM sequences of dsDNA on its assay specificity using TGG, TGC, AAC PAM containing substrates for SpCas9 (FIG. 62C), and ACGGGT, ACGGTT, TGCCCA PAM substrate for SaCas9 (FIG. 62F) and TTTC, TTGC, AAAG PAM substrates for FnCpf1 (FIG. 63B-C). Applicants also optimized the effective concentration of DS-AF647 and SS-AF647 fluorophores (FIG. 64A), DS-substrate to SpCas9 RNP ratio (FIG. 64B) and substrate to quencher ratio (FIG. 64C) on assay performance. Similarly, Applicants performed a time course experiment to establish the time required for maximum completion of the reaction at various substrate to SpCas9 RNP ratios (FIG. 64D).

Row | Compound | Auto Zscore Rep 1 | Auto Zscore Rep 2 | Normalized Zscore Rep 1 | Normalized Zscore Rep 2 | 3 sigma Hit | 5 sigma Hit
1 | Cc1cccc(Cn2c(SCC(O)CO)nc3c2c(=O)[nH]c(=O)n3C)c1 (stereo not drawn) [Compound D226-0165] | −0.346 | −0.1307 | 0.1224 | 0.1125 | 1 | –
2 | COc1ccc(-c2[nH]nc3nc(-c4ccc(O)c(O)c4)cc(C(=O)O)c23)cc1 [Cpd C202-1892] | −1.82 | −0.3926 | 0.4084 | 0.4043 | 1 | 1
3 | c1ccc(CCCNc2nn3nnnc3c3ccccc23)cc1 [Cpd C301-8945] | 0.8868 | 0.9986 | 0.2248 | 0.1621 | 1 | –
4 | COc1ccc2cc3c(N)nn(C(=O)c4ccncc4)c3nc2c1 [Cpd C594-0003] | −0.6022 | 0.6643 | 0.2515 | 0.1978 | 1 | –
5 | COc1ccc2cc3c(N)nn(C(=O)c4ccc(F)cc4)c3nc2c1 [Cpd C594-0010] | 0.8616 | −0.4814 | 0.1698 | 0.2567 | 1 | –
6 | Cn1nc(-c2ccc(Cl)cc2)c2cc(C(=O)O)sc21 [Cpd C660-1021] | 1.316 | 1.188 | 0.2339 | 0.1885 | 1 | 1
7 | Cc1nn2c(=O)cc(COc3ccc(C)c(C)c3)nc2s1 [Cpd C679-2752] | 0.9351 | −0.9427 | 0.5034 | 0.5292 | 1 | 1
8 | Cc1nnc(NC(=O)CSc2ccc3nnc(-c4ccc(F)cc4)n3n2)s1 [Cpd C742-0312] | −0.0443 | −0.6268 | 0.1897 | 0.2665 | 1 | –
9 | Cc1nnc(NC(=O)CSc2ccc3nnc(-c4cccc(F)c4)n3n2)s1 [Cpd C742-0431] | −0.06844 | 0.2074 | 0.342 | 0.3107 | 1 | 1
10 | O=C(c1ccccc1)c1cnc2ccc(F)cc2c1S(=O)(=O)c1ccc(F)cc1 [Cpd C770-0245] | 0.1661 | 0.1101 | 0.2065 | 0.1929 | 1 | –
11 | COc1cccc(CNCc2cccn2-c2sc(C)c(C)c2C(=O)O)c1 [Cpd C795-1664] | 0.429 | 0.8302 | 0.3494 | 0.3285 | 1 | 1
12 | CCSc1nc2c(c(=O)[nH]1)C(c1ccc(O)c(O)c1)CC(=O)N2 (stereo not drawn) [Cpd D271-0002] | −0.5592 | 0.1026 | 0.2655 | 0.3207 | 1 | 1
13 | O=C1CC(c2ccc(O)c(O)c2)c2c(nc(SCc3ccccc3)[nH]c2=O)N1 (stereo not drawn) [Cpd D271-0007] | −1.4647 | −0.1946 | 0.1942 | 0.18 | 1 | 1
14 | Cc1ccc(CSc2nc3c(c(=O)[nH]2)C(c2ccc(O)c(O)c2)CC(=O)N3)cc1 (stereo not drawn) [Cpd D271-0008] | −0.4729 | −0.3637 | 0.198 | 0.181 | 1 | 1
15 | O=C1CC(c2ccc(O)c(O)c2)c2c(nc(SCc3ccc(Cl)cc3)[nH]c2=O)N1 (stereo not drawn) [Cpd D271-0011] | −2.7 | −0.04169 | 0.1797 | 0.2066 | 1 | 1
16 | O=C1CC(c2ccc(O)c(O)c2)c2c(nc(SCc3cccc(Cl)c3)[nH]c2=O)N1 (stereo not drawn) [Cpd D271-0012] | 0.2548 | 0.7649 | 0.1908 | 0.1893 | 1 | 1
17 | CCOC(=O)c1c(NC(=O)CSc2nnc3cc(C)c4cccc(OC)c4n23)sc(C)c1C [Cpd D278-0687] | 0.0101 | 0.4839 | 0.1526 | 0.1495 | 1 | 1
18 | Cn1c(=O)c2c(-c3ccccc3)n3c(c2n(C)c1=O)C(c1ccc(O)c(O)c1)Nc1ccccc1-3 (stereo not drawn) [Cpd D359-0009] | −1.668 | −0.1926 | 0.1601 | 0.1044 | 1 | 1
19 | Cc1n[nH]c2c1C(c1ccc(O)c(O)c1)CC(=O)N2 (stereo not drawn) [Cpd D361-0120] | −0.203 | −0.05734 | 0.3533 | 0.2821 | 1 | 1
20 | COc1ccc(C2CC(=O)C3=C(C2)Nc2onc(C)c2C3c2ccc(O)c(O)c2)cc1OC (stereo not drawn) [Cpd D588-0034] | 0.4938 | −1.181 | 0.2106 | 0.2618 | 1 | 1
